Reference: patent US20190274334A1 (MARS, INCORPORATED, priority 2016, published 2019)
Values joined by “and” are separate entries in the source; they are usually repeats but may differ in a detail not shown here. Identical values can stand only once. Like-named read-outs stand apart in the source and are kept apart here.

Columns and labels:
[1] = test system: feline umami (T1R1/T1R3) receptor; settings: cited from earlier work
feline CaSR (f:CaSR) [2] = biological target: T1, feline CaSR (f:CaSR) (Felis catus, UniProt A0ABI7YY68); experiment: in vitro PAM testing of amino acids on feline CaSR, single-injection protocol, shift of calcium EC50; assay type: cell-based; settings: for EC50: CaCl2 alone, control of the same experiment, read-out: EC50 of Ca^2+ before the shift (without amino acid)
T1 sequence (A0ABI7YY68 entry or part of it): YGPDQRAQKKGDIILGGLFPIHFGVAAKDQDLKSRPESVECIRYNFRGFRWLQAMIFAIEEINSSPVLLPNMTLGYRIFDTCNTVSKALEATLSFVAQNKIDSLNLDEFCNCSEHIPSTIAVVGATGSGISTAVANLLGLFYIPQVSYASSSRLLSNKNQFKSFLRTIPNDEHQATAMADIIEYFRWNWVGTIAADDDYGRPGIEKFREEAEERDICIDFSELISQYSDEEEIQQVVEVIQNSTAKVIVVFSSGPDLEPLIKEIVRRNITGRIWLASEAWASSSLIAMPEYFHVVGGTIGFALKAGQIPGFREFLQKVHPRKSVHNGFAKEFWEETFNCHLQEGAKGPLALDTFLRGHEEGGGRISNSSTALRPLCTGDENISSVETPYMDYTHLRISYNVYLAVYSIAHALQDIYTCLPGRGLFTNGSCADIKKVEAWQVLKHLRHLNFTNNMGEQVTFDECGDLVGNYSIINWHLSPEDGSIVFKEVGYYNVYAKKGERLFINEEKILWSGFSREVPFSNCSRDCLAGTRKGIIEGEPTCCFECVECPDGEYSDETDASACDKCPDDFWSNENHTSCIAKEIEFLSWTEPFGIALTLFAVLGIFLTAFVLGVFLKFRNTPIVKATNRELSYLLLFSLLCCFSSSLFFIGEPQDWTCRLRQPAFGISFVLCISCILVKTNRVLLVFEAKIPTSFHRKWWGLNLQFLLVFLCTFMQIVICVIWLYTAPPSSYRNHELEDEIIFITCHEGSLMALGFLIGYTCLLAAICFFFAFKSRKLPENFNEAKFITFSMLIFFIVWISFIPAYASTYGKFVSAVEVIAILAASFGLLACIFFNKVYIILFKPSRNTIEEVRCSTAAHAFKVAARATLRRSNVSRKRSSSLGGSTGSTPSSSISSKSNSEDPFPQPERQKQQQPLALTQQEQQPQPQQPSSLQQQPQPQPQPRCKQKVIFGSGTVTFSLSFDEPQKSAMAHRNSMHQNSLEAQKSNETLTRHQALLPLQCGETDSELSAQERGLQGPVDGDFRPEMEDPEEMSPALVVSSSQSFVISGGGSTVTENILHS
Protocol: Methods: HEK293TRex/nat-Clytin cells that inducibly express a feline CaSR (f:CaSR) transgene construct was used to screen 30 amino acids to identify compounds that modulate f:CaSR activity. […] The HEK293 cells were seeded at 10,000 cells/well in 384 MTP. 24 hours after cell seeding, cells were loaded with 10 μm coelenterazine in an assay buffer (20 μL/well) for 4 h at room temperature. […] CaCl2 alone was used as a control.
PAM mode (single-injection): Test compound (6× concentrated) and CaCl2 (6× concentrated) were directly mixed 1:1 on the compound plate to get a 3× concentrated working solution of each test compound and control. 10 μl/well of the test compound or control working mixture was injected, and luminescence (i.e., PAM activity) was measured.

feline CaSR (f:CaSR) [3] = biological target: T1, feline CaSR (f:CaSR); experiment: cell-based; assay type: cell-based
Human CaSR = biological target: T2, Human CaSR (Homo sapiens, UniProt P41180); settings: Yes/No; cited from earlier work
T2 sequence (P41180 20-1078): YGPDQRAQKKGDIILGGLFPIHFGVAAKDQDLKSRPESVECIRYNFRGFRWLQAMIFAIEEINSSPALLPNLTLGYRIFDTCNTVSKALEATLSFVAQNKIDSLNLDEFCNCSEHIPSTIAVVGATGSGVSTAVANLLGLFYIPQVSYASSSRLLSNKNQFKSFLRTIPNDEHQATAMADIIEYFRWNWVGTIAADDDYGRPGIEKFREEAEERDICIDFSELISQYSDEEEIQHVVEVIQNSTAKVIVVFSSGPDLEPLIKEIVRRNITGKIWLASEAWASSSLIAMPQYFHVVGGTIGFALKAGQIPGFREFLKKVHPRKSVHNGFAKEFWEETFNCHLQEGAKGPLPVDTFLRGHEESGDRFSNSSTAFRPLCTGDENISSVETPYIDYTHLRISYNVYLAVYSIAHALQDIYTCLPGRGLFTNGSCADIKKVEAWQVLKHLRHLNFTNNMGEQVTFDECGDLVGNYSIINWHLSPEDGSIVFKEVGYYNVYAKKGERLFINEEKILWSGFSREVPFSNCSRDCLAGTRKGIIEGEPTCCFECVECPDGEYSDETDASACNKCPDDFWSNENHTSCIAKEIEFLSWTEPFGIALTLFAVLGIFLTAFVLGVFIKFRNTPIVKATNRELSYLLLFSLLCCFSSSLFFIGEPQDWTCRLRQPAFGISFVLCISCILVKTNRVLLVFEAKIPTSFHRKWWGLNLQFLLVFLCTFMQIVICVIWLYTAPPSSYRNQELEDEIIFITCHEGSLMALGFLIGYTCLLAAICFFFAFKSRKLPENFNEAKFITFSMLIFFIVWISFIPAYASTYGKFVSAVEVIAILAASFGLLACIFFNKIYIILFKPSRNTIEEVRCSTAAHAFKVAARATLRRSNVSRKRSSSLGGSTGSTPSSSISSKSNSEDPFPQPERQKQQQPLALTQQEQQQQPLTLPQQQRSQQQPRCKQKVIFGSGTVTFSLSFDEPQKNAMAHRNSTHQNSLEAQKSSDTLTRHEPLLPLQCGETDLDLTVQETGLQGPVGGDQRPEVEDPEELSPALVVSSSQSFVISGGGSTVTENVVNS

[4] = agonist mode, read-out: EC50 (Agonist)
[5] = double-injection protocol, agonist mode and PAM mode
[6] = PAM mode, CaCl2 injected at EC20, read-out: EC50 (PAM)

## N[C@@H](Cc1ccccc1)C(=O)O [L-Phenylalanine]
[1]
  Comments: Umami-active for cats: umami-active
Feline CaSR (f:CaSR) [2]; single-injection PAM mode
  Activity Type: PAMs and PAM
Feline CaSR (f:CaSR) [3]; Yes/No
  Feline CaSR agonist: do not activate

## [Ca] [Calcium]
Feline CaSR (f:CaSR) [2]; listed as Ca2^+
  EC50: 1300 µM
Feline CaSR (f:CaSR) [2]; listed as Ca^2+
  EC50: 1300 µM and 1500 µM
Feline CaSR (f:CaSR) [3]; [4]
  EC50: 1620 µM
Feline CaSR (f:CaSR) [3]; [5]
  Activity Type: Agonist

## N[C@@H](Cc1c[nH]cn1)C(=O)O [L-histidine]
[1]
  Comments: Umami-active for cats: Umami-active
Human CaSR
  Human CaSR agonist: Yes
Feline CaSR (f:CaSR) [3]; Yes/No
  Feline CaSR agonist: do not activate and No

## C[C@H](N)C(=O)O [L-alanine]
[1]
  Comments: Umami-active for cats: Umami-active
Human CaSR
  Human CaSR agonist: Yes
Feline CaSR (f:CaSR) [3]; Yes/No
  Feline CaSR agonist: do not activate and No

## N[C@@H](Cc1c[nH]c2ccccc12)C(=O)O [L-Tryptophan]
[1]
  Comments: Umami-active for cats: umami-active
Feline CaSR (f:CaSR) [2]; single-injection PAM mode
  Activity Type: PAMs and PAM
Feline CaSR (f:CaSR) [3]; Yes/No
  Feline CaSR agonist: do not activate

## N[C@@H](CCC(=O)N[C@@H](CCC(=O)O)C(=O)O)C(=O)O [H-Glu(Glu-OH)—OH]
Feline CaSR (f:CaSR) [3]; [5]
  Activity Type: Agonist

## N[C@@H](Cc1ccc(OP(=O)(O)O)cc1)C(=O)O [O-phospho-L-tyrosine]
Feline CaSR (f:CaSR) [3]; [5]
  Activity Type: Agonist

## CC(C)Oc1ccc(C(CCNC(C)c2ccc(Cl)cc2)c2ccccc2)cc1 (stereo not shown) [N-(1-(4-chlorophenyl)ethyl)-3-(4-isopropoxyphenyl)-3-phenylpropan-1-amine]
Feline CaSR (f:CaSR) [3]; [6]
  EC50: 4.49 µM
Feline CaSR (f:CaSR) [3]; [5]
  Activity Type: PAM

## CC(C)CCC(CCNC(C)c1ccc(Cl)cc1)c1ccc(OC(C)C)cc1 (stereo not shown) [N-(1-(4-chlorophenyl)ethyl)-3-(4-isopropoxyphenyl)-6-methylheptan-1-amine]
Feline CaSR (f:CaSR) [3]; [6]
  EC50: 172 µM
Feline CaSR (f:CaSR) [3]; [5]
  Activity Type: PAM

## CNC(C)[C@@H]1CC[C@@H](N)[C@@H](O[C@H]2[C@H](O)[C@@H](O[C@H]3OC[C@](C)(O)[C@H](NC)[C@H]3O)[C@H](N)C[C@@H]2N)O1 (stereo partly shown) [Gentamicin, reference compound]
Feline CaSR (f:CaSR) [3]; [4]
  EC50: 990 µM
Feline CaSR (f:CaSR) [3]; [5]
  Activity Type: Agonist

## COc1ccccc1C(CCNC(C)c1ccc(Cl)cc1)c1ccc(OC(C)C)cc1 (stereo not shown) [N-(1-(4-chlorophenyl)ethyl)-3-(4-isopropoxyphenyl)-3-(2-methoxyphenyl)propan-1-amine]
Feline CaSR (f:CaSR) [3]; [6]
  EC50: 0.714 µM
Feline CaSR (f:CaSR) [3]; [5]
  Activity Type: PAM

## CC(C)C[C@H](NC(=O)C[C@H](N)C(=O)O)C(=O)O [H-Asp(Leu-OH)—OH]
Feline CaSR (f:CaSR) [3]; [5]
  Activity Type: Agonist

## C[C@@H](NCc1cc2ccccc2[nH]1)c1cccc2ccccc12 [Calindol, reference compound]
Feline CaSR (f:CaSR) [3]; [5]
  Activity Type: PAM

## CC(C)[C@H](NC(=O)CC[C@H](N)C(=O)O)C(=O)O [γ-Glu-Val]
Feline CaSR (f:CaSR) [3]; [5]
  Activity Type: Agonist

## CC(NCCC(c1ccccc1)C1CCOC(C)(C)C1)c1ccccc1 (stereo not shown) [3-(2,2-dimethyltetrahydro-2H-pyran-4-yl)-3-phenyl-N-(1-phenylethyl)propan-1-amine]
Feline CaSR (f:CaSR) [3]; [6]
  EC50: 0.988 µM
Feline CaSR (f:CaSR) [3]; [5]
  Activity Type: PAM

## COC(=O)C(N)CC(=O)O (racemic) [DL-Aspartic acid alpha-methyl ester]
Feline CaSR (f:CaSR) [3]
  Activity Type: Agonist

## NC(CC(C(=O)O)C(=O)O)C(=O)O (racemic) [γ-Carboxy-DL-glutamic acid]
Feline CaSR (f:CaSR) [3]
  Activity Type: Agonist

## N=C(N)NCCC[C@H](N)C(=O)O [L-Arginine]
Feline CaSR (f:CaSR) [2]
  Activity Type: PAM EC50 of Ca^2+ moved from 1.5 mM to 0.72 mM in presence of 10 mM L-Arginine

## CC(NCCC(Cc1ccccc1)c1ccco1)c1ccc(Cl)cc1 (stereo not shown) [N-(1-(4-chlorophenyl)ethyl)-3-(furan-2-yl)-4-phenylbutan-1-amine]
Feline CaSR (f:CaSR) [3]; [6]
  EC50: 4 µM
Feline CaSR (f:CaSR) [3]; [5]
  Activity Type: PAM

## N[C@@H](CCC(=O)N[C@@H](CCC(=O)N[C@@H](CCC(=O)O)C(=O)O)C(=O)O)C(=O)O [H-Glu(Glu(Glu-OH)—OH)—OH]
Feline CaSR (f:CaSR) [3]
  Activity Type: Agonist EC50 2.35 mM
Feline CaSR (f:CaSR) [3]; [4]
  EC50: 2350 µM

## Cc1ccc(C(CCNC(C)c2ccc(Cl)cc2)c2ccco2)cc1 (stereo not shown) [N-(1-(4-chlorophenyl)ethyl)-3-(furan-2-yl)-3-(p-tolyl)propan-1-amine]
Feline CaSR (f:CaSR) [3]; [6]
  EC50: 3.68 µM
Feline CaSR (f:CaSR) [3]; [5]
  Activity Type: PAM

## CN[C@@H]1[C@@H](O)[C@@H](O[C@@H]2[C@@H](O)[C@H](O[C@H]3OC(CN)=CC[C@H]3N)[C@@H](N)C[C@H]2N)OC[C@]1(C)O [Sisomicin, reference compound]
Feline CaSR (f:CaSR) [3]; [5]
  Activity Type: Agonist

## Tobramycin [reference compound]
Feline CaSR (f:CaSR) [3]; [5]
  Activity Type: PAM

## NCCCCN [Putrescine]
Human CaSR
  Human CaSR agonist: Yes
Feline CaSR (f:CaSR) [3]
  Feline CaSR agonist: No

## [Sr+2] [Strontium]
Feline CaSR (f:CaSR) [3]; [5]
  Activity Type: Agonist

## Geneticin [reference compound]
Feline CaSR (f:CaSR) [3]; [5]
  Activity Type: Agonist

## NCCCC[C@H](N)C(=O)O [L-Lysine]
Feline CaSR (f:CaSR) [2]
  Activity Type: PAM EC50 of Ca^2+ moved from 1.5 mM to 0.72 mM in presence of 10 mM L-Lysine

## COC(=O)C(NC1CCc2c(F)cccc21)c1cccc(C#N)c1 (stereo not shown) [methyl 2-(3-cyanophenyl)-2-((4-fluoro-2,3-dihydro-1H-inden-1-yl)amino)acetate]
Feline CaSR (f:CaSR) [3]; [6]
  EC50: 58.9 µM
Feline CaSR (f:CaSR) [3]; [5]
  Activity Type: PAM

## C[C@@H](NCCCc1cccc(C(F)(F)F)c1)c1cccc2ccccc12 [Cinacalcet, reference compound]
Feline CaSR (f:CaSR) [3]
  Activity Type: PAM EC50 0.746 uM

## N[C@@H](CCC(=O)N[C@@H](Cc1ccccc1)C(=O)O)C(=O)O [γ-Glu-Phe]
Feline CaSR (f:CaSR) [3]; [4]
  EC50: 2320 µM
Feline CaSR (f:CaSR) [3]; [5]
  Activity Type: Agonist
